# Test results from patent US20100173022A1, “COMPOSITION FOR THE TREATMENT OF DIABETES MELLITUS AND METABOLIC SYNDROME” (priority 2007, published 2010).
# Experiments:
# rat islets = assay: in vitro insulinotropic test using rat islets; type: cell-based; details: dose 162(1 mM) micrograms; mean ± SEM
# Description: In an in vitro test using rat islets, the insulinotropic ability of ADM01 was investigated against standard (tolbutamide) and placebo control.
# [1] = system: experimental diabetic rats (Streptozotocin-Nicotinamide model); assay: 30-days study in Streptozotocin-Nicotinamide experimental diabetic rats; type: in vivo, rat; details: after 10, 20 and 30 days of treatment vs base line (0 day); P<0.05
# Procedure: In another study the effect of ADM01 on blood glucose levels in experimental diabetic rats, using the Streptozotocin-Nicotinamide model, was investigated. After confirming the stabilization of diabetes mellitus in the experimental animals a single dose study was carried out in which the effect of a single dose administration of different dosages of ADM01 on blood glucose levels was investigated against vehicle control.
# After the single dose study, a 30-days study was carried out in which the effect of daily administration of ADM01 on blood glucose levels was investigated. The effect of doses of 200, 400 and 800 mg/kg body weight respectively were investigated.
# [2] = system: streptozotocin induced type I diabetes rats; assay: Streptozotocin induced type I diabetes model; type: in vivo, rat; details: insulin 2.5, single dose, at 2 hrs
# Procedure: In another study streptozotocin was administered to the test animals, causing the destruction of the beta cells of pancreas. In rats a dose of STZ of 60 mg/kg ip causes stable hyperglycemia by day 7 post administration. Generally, this model mimics type I Diabetes Mellitus. Groups were treated for 15 days with ADM01, ADM01+insulin and insulin.
# In the same study the effects of a single dose administration on fasting glucose levels was studied.
Compound,"Amount of insulin during stimulated insulin release (glucose, 16 mM) (rat islets) [picomoles/L]",Amount of insulin release at basal glucose levels (2 mM) (rat islets) [picomoles/L],serum blood glucose levels [1],serum insulin levels [1],fall of FPG-levels [2] [%]
CCCCNC(=O)NS(=O)(=O)c1ccc(C)cc1 [Tolbutamide],239.48 ± 11.43,107.08 ± 15.35,significantly decreased,significantly increased,–
insulin,–,–,–,–,23.3
